Source: patent US9732093B2, “FLAP modulators” (JANSSEN PHARMACEUTICA NV, priority 2013, dated 2017)
pKi: −log10 of the molar value. Structures can show the parent of a compound that is named as a salt.

These compounds were tested against human FLAP (Homo sapiens (Human), UniProt P20292) (assay: FLAP binding assay (HTRF format)). Settings: human FLAP wild type membranes, HTRF format; Table 6 (additional runs).
Procedure: The ability of the compounds of the present invention to treat a FLAP-mediated disease and/or disorder, or associated symptoms or complications thereof, was determined using the following procedures. Binding assay data represent the average value obtained from two different assay plates, with samples run in duplicate on each plate. Human whole blood assay data represent a single replicate on an assay plate using whole blood from at least one healthy donor.
Data are expressed as a HTRF ratio.

human FLAP, sequence (P20292 whole entry): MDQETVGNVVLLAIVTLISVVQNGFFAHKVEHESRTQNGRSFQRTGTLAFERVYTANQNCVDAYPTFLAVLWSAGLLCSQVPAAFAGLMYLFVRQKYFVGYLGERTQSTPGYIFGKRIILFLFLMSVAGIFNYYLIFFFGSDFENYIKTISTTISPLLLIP

Q: `Nc1cnc(-c2ccc(C3CCC3)c(Oc3nccc(-c4cccs4)n3)c2F)cn1` [Example 91, 5-{4-Cyclobutyl-2-fluoro-3-[(4-thiophen-2-ylpyrimidin-2-yl)oxy]phenyl}pyrazin-2-amine] was tested. Which pKi did it give?
A: Its pKi is 9.10.

Q: With `COc1ccnc(Oc2c(C3CCC3)ccc(-c3cnc(N)cn3)c2F)n1` [Example 93, 5-{4-Cyclobutyl-2-fluoro-3-[(4-methoxypyrimidin-2-yl)oxy]phenyl}pyrazin-2-amine] as the compound, how does the pKi read?
A: Its pKi is 8.28.

Q: With `COc1cnc(Oc2c(C3CCC3)ccc(-c3cnc(N)cn3)c2F)nc1` [Example 94, 5-{4-Cyclobutyl-2-fluoro-3-[(5-methoxypyrimidin-2-yl)oxy]phenyl}pyrazin-2-amine] as the compound, how does the pKi read?
A: The pKi was 7.35.

Q: How did the pKi turn out when `CS(=O)(=O)c1ccnc(Oc2c(C3CCC3)ccc(-c3cnc(N)cn3)c2F)n1` [Example 95, 5-(4-Cyclobutyl-2-fluoro-3-{[4-(methylsulfonyl)pyrimidin-2-yl]oxy}phenyl)pyrazin-2-amine] was run?
A: Its pKi is 8.33.

Q: With `COc1cc(Oc2c(C3CCC3)ccc(-c3cnc(N)cn3)c2F)nc(N)n1` [Example 99, 4-[3-(5-Aminopyrazin-2-yl)-6-cyclobutyl-2-fluorophenoxy]-6-methoxypyrimidin-2-amine] as the compound, how does the pKi read?
A: The pKi was 8.26.

Q: With `COc1nc(N)cc(Oc2c(C3CCC3)ccc(-c3cnc(N)cn3)c2F)n1` [Example 100, 6-[3-(5-Aminopyrazin-2-yl)-6-cyclobutyl-2-fluorophenoxy]-2-methoxypyrimidin-4-amine] as the compound, how does the pKi read?
A: Its pKi is 8.92.

Q: How did the pKi turn out when `Nc1cnc(-c2ccc(C3CCC3)c(Oc3cccc(C(F)(F)F)n3)c2F)cn1` [Example 102, 5-(4-Cyclobutyl-2-fluor-3-{[6-(trifluoromethyl)pyridin-2-yl]oxy}phenyl)pyrazin-2-amine] was run?
A: Its pKi is 8.74.

Q: How did the pKi turn out when `Nc1cnc(-c2ccc(C3CCC3)c(Oc3ncc(C(F)(F)F)cn3)c2F)cn1` [Example 104, 5-(4-Cyclobutyl-2-fluoro-3-{[5-(trifluoromethyl)pyrimidin-2-yl]oxy}phenyl)pyrazin-2-amine] was run?
A: Its pKi is 7.74.

Q: With `Nc1cnc(-c2ccc(C3CCC3)c(Oc3cnc(C(F)(F)F)cn3)c2F)cn1` [Example 105, 5-(4-Cyclobutyl-2-fluoro-3-{[5-(trifluoromethyl)pyrazin-2-yl]oxy}phenyl)pyrazin-2-amine] as the compound, how does the pKi read?
A: The pKi was 7.40.

Q: `Nc1cnc(-c2ccc(C3CCC3)c(Oc3ccc(C(F)(F)F)nn3)c2F)cn1` [Example 106, 5-(4-Cyclobutyl-2-fluoro-3-{[6-(trifluoromethyl)pyridazin-3-yl]oxy}phenyl)pyrazin-2-amine] was tested. Which pKi did it give?
A: The pKi was 7.91.

Q: With `COC(=O)c1ccc(Oc2c(C3CCC3)ccc(-c3cnc(N)cn3)c2F)nc1` [Example 107, Methyl 6-[3-(5-aminopyrazin-2-yl)-6-cyclobutyl-2-fluorophenoxy]pyridine-3-carboxylate] as the compound, how does the pKi read?
A: The pKi was 8.27.

Q: `N#Cc1ccc(Oc2c(C3CCC3)ccc(-c3cnc(N)cn3)c2F)cn1` [Example 108, 5-[3-(5-Aminopyrazin-2-yl)-6-cyclobutyl-2-fluorophenoxy]pyridine-2-carbonitrile] was tested. Which pKi did it give?
A: The pKi was 7.55.

Q: How did the pKi turn out when `N#Cc1cc(Oc2c(C3CCC3)ccc(-c3cnc(N)cn3)c2F)ccn1` [Example 109, 4-[3-(5-Aminopyrazin-2-yl)-6-cyclobutyl-2-fluorophenoxy]pyridine-2-carbonitrile] was run?
A: The pKi was 7.95.

Q: `N#Cc1cccnc1Oc1c(C2CCC2)ccc(-c2cnc(N)cn2)c1F` [Example 110, 2-[3-(5-Aminopyrazin-2-yl)-6-cyclobutyl-2-fluorophenoxy]pyridine-3-carbonitrile] was tested. Which pKi did it give?
A: Its pKi is 8.59.

Q: With `N#Cc1cccc(Oc2c(C3CCC3)ccc(-c3cnc(N)cn3)c2F)n1` [Example 111, 6-[3-(5-Aminopyrazin-2-yl)-6-cyclobutyl-2-fluorophenoxy]pyridine-2-carbonitrile] as the compound, how does the pKi read?
A: The pKi was 8.62.

Q: How did the pKi turn out when `N#Cc1ncccc1Oc1c(C2CCC2)ccc(-c2cnc(N)cn2)c1F` [Example 112, 3-[3-(5-Aminopyrazin-2-yl)-6-cyclobutyl-2-fluorophenoxy]pyridine-2-carbonitrile] was run?
A: Its pKi is 7.87.

Q: How did the pKi turn out when `Nc1cnc(-c2ccc(C3CCC3)c(Oc3ccc(C(F)(F)F)cn3)c2F)cn1` [Example 113, 5-(4-Cyclobutyl-2-fluoro-3-{[5-(trifluoromethyl)pyridin-2-yl]oxy}phenyl)pyrazin-2-amine] was run?
A: Its pKi is 7.51.

Q: With `Nc1cnc(-c2ccc(C3CCC3)c(Oc3ccc(S(F)(F)(F)(F)F)cc3)c2F)cn1` [Example 115, 5-{4-Cyclobutyl-2-fluoro-3-[4-(pentafluoro-lambda˜6˜-sulfanyl)phenoxy]phenyl}pyrazin-2-amine] as the compound, how does the pKi read?
A: Its pKi is 7.27.

Q: With `Nc1cnc(-c2ccc(C3CCC3)c(Oc3nccc(N)n3)c2F)cn1` [Example 119, 2-[3-(5-Aminopyrazin-2-yl)-6-cyclobutyl-2-fluorophenoxy]pyrimidin-4-amine] as the compound, how does the pKi read?
A: The pKi was 8.18.

Q: `Nc1cnc(-c2ccc(C3CCC3)c(Oc3ncccc3C(F)(F)F)c2F)cn1` [Example 121, 5-(4-Cyclobutyl-2-fluoro-3-{[3-(trifluoromethyl)pyridin-2-yl]oxy}phenyl)pyrazin-2-amine] was tested. Which pKi did it give?
A: The pKi was 8.14.

Q: How did the pKi turn out when `Nc1cnc(-c2ccc(C3CCC3)c(Oc3ncccc3Cl)c2F)cn1` [Example 122] was run?
A: Its pKi is 8.43.

Q: How did the pKi turn out when `Nc1cnc(-c2ccc(C3CCC3)c(Oc3ccnc(C(F)(F)F)n3)c2F)cn1` [Example 124, 5-(4-Cyclobutyl-2-fluoro-3-{[2-(trifluoromethyl)pyrimidin-4-yl]oxy}phenyl)pyrazin-2-amine] was run?
A: Its pKi is 8.55.

Q: With `Cc1nccc(Oc2c(C3CCC3)ccc(-c3cnc(N)cn3)c2F)n1` [Example 134, 5-{4-Cyclobutyl-2-fluoro-3-[(2-methylpyrimidin-4-yl)oxy]phenyl}pyrazin-2-amine] as the compound, how does the pKi read?
A: The pKi was 8.34.

Q: With `Nc1cnc(-c2ccc(C3CCC3)c(Oc3ccnc(Cl)n3)c2F)cn1` [Example 137, 5-{3-[(2-Chloropyrimidin-4-yl)oxy]-4-cyclobutyl-2-fluorophenyl}pyrazin-2-amine] as the compound, how does the pKi read?
A: Its pKi is 8.37.

Q: `Nc1cnc(-c2ccc(C3CCC3)c(Oc3cc(C4CC4)ncn3)c2F)cn1` [Example 141, 5-{4-Cyclobutyl-3-[(6-cyclopropylpyrimidin-4-yl)oxy]-2-fluorophenyl}pyrazin-2-amine] was tested. Which pKi did it give?
A: The pKi was 8.26.

Q: With `Nc1cnc(-c2ccc(C3CCC3)c(Oc3ccc(C(=O)O)cn3)c2F)cn1` [Example 154, 6-[3-(5-Aminopyrazin-2-yl)-6-cyclobutyl-2-fluorophenoxy]pyridine-3-carboxylic acid] as the compound, how does the pKi read?
A: The pKi was 7.75.

Q: How did the pKi turn out when `N#Cc1nc(N)cnc1-c1ccc(C2CCC2)c(OCc2cccc(C(=O)O)c2)c1F` [Example 174, 3-{[3-(5-Amino-3-cyanopyrazin-2-yl)-6-cyclobutyl-2-fluorophenoxy]methyl}benzoic acid] was run?
A: Its pKi is 8.41.

Q: `COc1cc(Oc2c(C(C)(C)C)ccc(-c3cnc(N)cn3)c2F)ncn1` [Example 204, 5-{4-tert-Butyl-2-fluor-3-[(6-methoxypyrimidin-4-yl)oxy]phenyl}pyrazin-2-amine] was tested. Which pKi did it give?
A: The pKi was 8.07.

Q: How did the pKi turn out when `CC(C)(C)c1ccc(-c2cnc(N)cn2)cc1OCc1ccccc1` [Example 215, 5-[3-(Benzyloxy)-4-tert-butylphenyl]pyrazin-2-amine] was run?
A: The pKi was 6.15.

Q: How did the pKi turn out when `Nc1cnc(-c2ccc(Cl)c(OCc3ccccc3)c2F)cn1` [Example 216, 5-[3-(Benzyloxy)-4-chloro-2-fluorophenyl]pyrazin-2-amine] was run?
A: Its pKi is 6.15.

Q: With `Nc1cnc(-c2ccc(C3CCC3)c(OCc3ccccc3)c2)cn1` [Example 217, 5-[3-(Benzyloxy)-4-cyclobutylphenyl]pyrazin-2-amine] as the compound, how does the pKi read?
A: The pKi was 5.98.

Q: How did the pKi turn out when `CC(C)(C)OC(=O)N1CCCC(COc2c(C3CCC3)ccc(-c3cnc(N)cn3)c2F)C1` (stereo not drawn) [Example 249, tert-Butyl 3-((3-(5-aminopyrazin-2-yl)-6-cyclobutyl-2-fluorophenoxy)methyl)piperidine-1-carboxylate] was run?
A: Its pKi is 6.55.

Q: `CC(C)CNc1nccc(Oc2c(C3CCC3)ccc(-c3cnc(N)cn3)c2F)n1` [Example 261, 4-(3-(5-Aminopyrazin-2-yl)-6-cyclobutyl-2-fluorophenoxy)-N-isobutylpyrimidin-2-amine trifluoroacetic acid salt] was tested. Which pKi did it give?
A: The pKi was 8.66.

Q: `Nc1cnc(-c2ccc(C3CCC3)c(OCC3CCOCC3)c2F)cn1` [Example 264, 5-[4-Cyclobutyl-2-fluoro-3-(tetrahydro-2H-pyran-4-ylmethoxy)phenyl]pyrazin-2-amine] was tested. Which pKi did it give?
A: The pKi was 6.99.

Q: With `Nc1cnc(-c2ccc(C3CCC3)c(OCC3CCNCC3)c2F)cn1` [Example 298, 5-[4-Cyclobutyl-2-fluoro-3-(piperidin-4-ylmethoxy)phenyl]pyrazin-2-amine hydrogen chloride salt] as the compound, how does the pKi read?
A: The pKi was 6.06.

Q: With `CCc1ccc(-c2cnc(N)cn2)c(F)c1Oc1ncccn1` [Example 316, 5-[4-Ethyl-2-fluoro-3-(pyrimidin-2-yloxy)phenyl]pyrazin-2-amine] as the compound, how does the pKi read?
A: The pKi was 5.86.

Q: How did the pKi turn out when `Nc1cnc(-c2ccc(C3CCCCC3)c(Oc3ncccn3)c2F)cn1` [Example 320, 5-(4-Cyclohexyl-2-fluoro-3-(pyrimidin-2-yloxy)phenyl)pyrazin-2-amine] was run?
A: The pKi was 7.44.

Q: `CCc1ccc(-c2cnc(N)cn2)c(F)c1O` [Example 333, 3-(5-Aminopyrazin-2-yl)-6-ethyl-2-fluorophenol] was tested. Which pKi did it give?
A: Its pKi is 6.38.

Q: How did the pKi turn out when `Nc1cnc(-c2ccc(C3CCC3)c(OCc3ccc(Br)cc3)c2F)cn1` [Example 340, 5-{3-[(4-Bromobenzyl)oxy]4-cyclobutyl-2-fluorophenyl}pyrazin-2-amine] was run?
A: Its pKi is 6.19.
